Measurements taken from US20090124587A1, “METHODS FOR TREATING CANCER USING 17alpha-HYDROXYLASE/C17,20-LYASE INHIBITORS” (priority 2007, published 2009).
Like-named read-outs stand apart in the source and are kept apart here.

Test: Food effect PK study, two single oral 1000 mg doses of abiraterone acetate, fed (high fat) vs fasted
Format: in vivo, human
Details: for concentration at 1.017 h: read-out: Abiraterone Concentration in plasma; for clearance: read-out: Cl F obs (converted); for Vd/F: read-out: Vz F obs; for concentration at 1.033 hr: sample time 1.033 hr; for concentration at 6 hr: sample time 6.000 hr; for concentration at 8 hr: sample time 8.000 hr; for concentration at 1 hr: sample time 1.000 hr; for concentration at 7.983 hr: sample time 7.983 hr
Description: To measure the amount of abiraterone and abiraterone acetate in the samples, these compounds were extracted from 100 uL human plasma using solid phase extraction (SPE) with cation mixed-mode polymer cartridges. Extracts were evaporated to dryness before reconstitution and analysis. Chromatography was carried out using a Luna™ C5 column (5 μm, 50 mm×2.1 mm id) with a gradient mobile phase consisting of 10 mM ammonium acetate and 2% propan-2-ol in acetonitrile. The flow rate was 0.2 mL/min and the run time 10.5 minutes. Abiraterone and abiraterone acetate were ionized using the electrospray interface in positive ion mode. Detection of analytes was via tandem mass spectrometry (MS/MS) in the multiple reaction monitoring (MRM) mode.
PK modeling was conducted using a non-compartmental model, extra vascular input for plasma with WinNonLin Software®. Pharmacokinetic parameters estimated in the model include:
Based on the above results, the PK parameters for a single dose of 1000 mg/day of abiraterone acetate were further studied in the 3 subjects who were administered the 1000 mg/day dose and in 3 additional subjects. Two single oral doses (1000 mg) of abiraterone acetate were administered separately, one concomitantly with food of high fat content and one in fasting state. The first single dose was administered on day −9 with PK blood samples being taken at 1, 2, 4, 6, 8, 24, 48 and 72 hours post dose. The second single dose was administered on day −3 with PK blood samples being taken at 1, 2, 4, 6, 8, 24 and 48 hours post dose for analysis.

[1] = human, plasma, oral, 1000 mg, Patient 13, 1000 mg, Fasted
[2] = human, plasma, oral, 1000 mg, Patient 13, 1000 mg, Fed
[3] = human, plasma, oral, 1000 mg, Patient 13, Fasted
[4] = human, plasma, oral, 1000 mg, Patient 13, Fed
[5] = human, plasma, oral, 1000 mg, Patient 14, 1000 mg, Fasted
[6] = human, plasma, oral, 1000 mg, Patient 14, 1000 mg, Fed
[7] = human, plasma, oral, 1000 mg, Patient 14, Fasted
[8] = human, plasma, oral, 1000 mg, Patient 14, Fed
[9] = human, plasma, oral, 1000 mg, Patient 15, 1000 mg, Fasted
[10] = human, plasma, oral, 1000 mg, Patient 15, 1000 mg, Fed
[11] = human, plasma, oral, 1000 mg, Patient 15, Fasted
[12] = human, plasma, oral, 1000 mg, Patient 15, Fed

Abiraterone plasma levels with food in comparison with fasting (1000 mg, concomitantly with food vs fasting): higher
HL (Patient 13, 1000 mg, Fasted): 10.2 h
HL (Patient 13, 1000 mg, Fed): 10.7 h
concentration at 1.017 h (Patient 13, Fasted, 1000 mg, pre-dose (day −3)): 0.0 nM
concentration at 1.017 h (Patient 13, Fed, 1000 mg, pre-dose (day −9)): 0.0 nM
Abiraterone Concentration in plasma (Patient 13, Fed, 1000 mg, sample time 72.000 hr): BLLOQ^1
HL (Patient 14, 1000 mg, Fasted): 6.6 h
HL (Patient 14, 1000 mg, Fed): 8.8 h
concentration at 1.017 h (Patient 14, Fasted, 1000 mg, pre-dose (day −9)): 0.0 nM
Abiraterone Concentration in plasma (Patient 14, Fasted, 1000 mg, sample time 48.217 hr): BLLOQ
concentration at 1.017 h (Patient 14, Fed, 1000 mg, pre-dose (day −3)): 0.0 nM
HL (Patient 15, 1000 mg, Fasted): 6.6 h
HL (Patient 15, 1000 mg, Fed): 8.0 h
Abiraterone Concentration in plasma (Patient 15, Fasted, 1000 mg, pre-dose (day −3)): BLLOQ
concentration at 1.017 h (Patient 15, Fed, 1000 mg, pre-dose (day −9)): 0.0 nM
Abiraterone Concentration in plasma (Patient 15, Fed, 1000 mg, sample time 2.000 hr): BLLOQ
Abiraterone Concentration in plasma (Patient 15, Fed, 1000 mg, sample time 70.100 hr): BLLOQ
HL (Patient 19, 1000 mg, Fasted): 8.0 h
HL (Patient 19, 1000 mg, Fed): 10.0 h
concentration at 1.017 h (Patient 19, Fasted, 1000 mg, pre-dose (day −9)): 0.0 nM
Abiraterone Concentration in plasma (Patient 19, Fasted, 1000 mg, sample time 71.950 hr): BLLOQ
concentration at 1.017 h (Patient 19, Fed, 1000 mg, pre-dose (day −3)): 0.0 nM
HL (Patient 20, 1000 mg, Fasted): 15.3 h
HL (Patient 20, 1000 mg, Fed): 18.3 h
concentration at 1.017 h (Patient 20, Fasted, 1000 mg, pre-dose (day −3)): 5.1 nM
Abiraterone Concentration in plasma (Patient 20, Fed, 1000 mg, pre-dose (day −9)): BLLOQ
HL (Patient 21, 1000 mg, Fasted): 12.6 h
HL (Patient 21, 1000 mg, Fed): 9.7 h
concentration at 1.017 h (Patient 21, Fasted, 1000 mg, pre-dose (day −9)): 0 nM
Abiraterone Concentration in plasma (Patient 21, Fed, 1000 mg, pre-dose (day −3)): BLLOQ
difference in mean drug levels between the dosing regimes (fed vs fasted) (extended cohort of six patients): Up to a two fold difference
clearance [1]: 12600 mL/min
Vd/F [1]: 11100 L
clearance [2]: 4240 mL/min
Vd/F [2]: 3920 L
AUC(0-inf) [3]: 3.78 µM·h
AUC(0-t) [3]: 3.7 µM·h
Cmax [3]: 548 nM
Tmax [3]: 1.03 h
concentration at 1.033 hr [3]: 548 nM
concentration at 2.017 hr (human, plasma, oral, 1000 mg, Patient 13, Fasted, sample time 2.017 hr): 500 nM
concentration at 4 hr (human, plasma, oral, 1000 mg, Patient 13, Fasted, sample time 4.000 hr): 304 nM
concentration at 6 hr [3]: 104 nM
concentration at 8 hr [3]: 89.4 nM
concentration at 24.667 hr (human, plasma, oral, 1000 mg, Patient 13, Fasted, sample time 24.667 hr): 34.1 nM
concentration at 48.117 hr (human, plasma, oral, 1000 mg, Patient 13, Fasted, sample time 48.117 hr): 5.8 nM
AUC(0-inf) [4]: 11.2 µM·h
AUC(0-t) [4]: 10.8 µM·h
Cmax [4]: 1180 nM
Tmax [4]: 4 h
concentration at 1 hr [4]: 130 nM
concentration at 2 h (human, plasma, oral, 1000 mg, Patient 13, Fed, sample time 2.000 hr): 675 nM
concentration at 4 h (human, plasma, oral, 1000 mg, Patient 13, Fed, sample time 4.000 hr): 1180 nM
concentration at 7.983 hr [4]: 392 nM
concentration at 23.983 hr (human, plasma, oral, 1000 mg, Patient 13, Fed, sample time 23.983 hr): 93.7 nM
concentration at 48.5 hr (human, plasma, oral, 1000 mg, Patient 13, Fed, sample time 48.500 hr): 26.8 nM
clearance [5]: 32600 mL/min
Vd/F [5]: 18500 L
clearance [6]: 4050 mL/min
Vd/F [6]: 3070 L
AUC(0-inf) [7]: 1.46 µM·h
AUC(0-t) [7]: 1.35 µM·h
Cmax [7]: 205 nM
Tmax [7]: 4.07 h
concentration at 1 hr [7]: 76.3 nM
concentration at 2 hr (human, plasma, oral, 1000 mg, Patient 14, Fasted, sample time 2.000 hr): 82.5 nM
concentration at 4.067 hr (human, plasma, oral, 1000 mg, Patient 14, Fasted, sample time 4.067 hr): 205 nM
concentration at 6.05 hr (human, plasma, oral, 1000 mg, Patient 14, Fasted, sample time 6.050 hr): 99.8 nM
concentration at 8.017 hr (human, plasma, oral, 1000 mg, Patient 14, Fasted, sample time 8.017 hr): 48.6 nM
concentration at 24.017 hr (human, plasma, oral, 1000 mg, Patient 14, Fasted, sample time 24.017 hr): 12.1 nM
concentration at 71.333 hr (human, plasma, oral, 1000 mg, Patient 14, Fasted, sample time 71.333 hr): 0 nM
AUC(0-inf) [8]: 11.8 µM·h
AUC(0-t) [8]: 11.6 µM·h
Cmax [8]: 2210 nM
Tmax [8]: 1.03 h
concentration at 1.033 hr [8]: 2210 nM
concentration at 2.033 hr (human, plasma, oral, 1000 mg, Patient 14, Fed, sample time 2.033 hr): 1770 nM
concentration at 4 hr (human, plasma, oral, 1000 mg, Patient 14, Fed, sample time 4.000 hr): 464 nM
concentration at 6 hr [8]: 516 nM
concentration at 7.983 hr [8]: 335 nM
concentration at 24.083 hr (human, plasma, oral, 1000 mg, Patient 14, Fed, sample time 24.083 hr): 79.7 nM
concentration at 47.7 hr (human, plasma, oral, 1000 mg, Patient 14, Fed, sample time 47.700 hr): 14.2 nM
clearance [9]: 18400 mL/min
Vd/F [9]: 10500 L
clearance [10]: 4610 mL/min
Vd/F [10]: 3190 L
AUC(0-inf) [11]: 2.59 µM·h
AUC(0-t) [11]: 2.37 µM·h
Cmax [11]: 420 nM
Tmax [11]: 2.98 h
concentration at 1 hr [11]: 8.7 nM
concentration at 2.983 hr (human, plasma, oral, 1000 mg, Patient 15, Fasted, sample time 2.983 hr): 420 nM
concentration at 3.967 hr (human, plasma, oral, 1000 mg, Patient 15, Fasted, sample time 3.967 hr): 242 nM
concentration at 5.983 hr (human, plasma, oral, 1000 mg, Patient 15, Fasted, sample time 5.983 hr): 131 nM
concentration at 8 hr [11]: 111 nM
concentration at 22.983 hr (human, plasma, oral, 1000 mg, Patient 15, Fasted, sample time 22.983 hr): 22.4 nM
AUC(0-inf) [12]: 10.3 µM·h
AUC(0-t) [12]: 10.1 µM·h
Cmax [12]: 1120 nM
Tmax [12]: 6.08 h
concentration at 1 hr [12]: 0 nM
Structure (SMILES): C[C@]12CC[C@H](O)CC1=CC[C@@H]1[C@@H]2CC[C@]2(C)C(c3cccnc3)=CC[C@@H]12 [Abiraterone]
